According to US9957271B2, “Substituted bicyclic aza-heterocycles and analogues as sirtuin modulators” (GlaxoSmithKline, LLC, priority 2012, dated 2018):
Where two headings read alike, the source gives them in different places.

Target: T1, SIRT1 (Homo sapiens, UniProt Q96EB6)
T1 sequence (Q96EB6 1-747): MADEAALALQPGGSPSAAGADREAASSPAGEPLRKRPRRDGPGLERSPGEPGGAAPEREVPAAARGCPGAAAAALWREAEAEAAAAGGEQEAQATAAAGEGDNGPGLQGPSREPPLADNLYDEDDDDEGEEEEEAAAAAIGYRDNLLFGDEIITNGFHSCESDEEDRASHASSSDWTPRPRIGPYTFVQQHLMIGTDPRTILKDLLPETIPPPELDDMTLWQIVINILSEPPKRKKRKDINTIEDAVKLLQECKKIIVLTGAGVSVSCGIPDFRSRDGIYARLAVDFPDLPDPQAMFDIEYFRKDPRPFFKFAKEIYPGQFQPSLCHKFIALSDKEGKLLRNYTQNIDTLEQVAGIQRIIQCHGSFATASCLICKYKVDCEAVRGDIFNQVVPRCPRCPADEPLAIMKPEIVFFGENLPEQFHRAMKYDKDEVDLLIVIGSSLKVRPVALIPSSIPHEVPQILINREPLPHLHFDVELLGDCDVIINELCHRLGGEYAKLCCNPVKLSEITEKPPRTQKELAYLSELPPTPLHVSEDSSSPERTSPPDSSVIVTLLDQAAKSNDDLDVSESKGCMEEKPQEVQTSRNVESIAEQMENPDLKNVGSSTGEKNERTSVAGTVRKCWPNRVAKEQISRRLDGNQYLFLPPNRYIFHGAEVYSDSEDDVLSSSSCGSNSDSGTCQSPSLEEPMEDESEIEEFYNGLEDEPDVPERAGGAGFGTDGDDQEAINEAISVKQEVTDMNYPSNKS
Assay: TAMRA based mass spectrometry assay of SIRT1 activity
Format: biochemical
Conditions: for Emax: read-out: TAMRA % Fold Act
Description: Mass spectrometry based assays were used to identify modulators of SIRT1 activity. The TAMRA based assay utilized a peptide having 20 amino acid residues as follows: Ac-EE-K(biotin)-[…](Ac)NleSTEG-K(5TMR)-EE-NH2 (SEQ ID NO: 1), wherein K(Ac) is an acetylated lysine residue and Nle is a norleucine. The peptide was labeled with the fluorophore 5TMR (excitation 540 nm/emission 580 nm) at the C-terminus. The sequence of the peptide substrate was based on p53 with several modifications. In addition, the methionine residue naturally present in the sequence was replaced with the norleucine because the methionine may be susceptible to oxidation during synthesis and purification. The Trp based assay utilized a peptide having an amino acid residues as follows: Ac-R-H-K-K(Ac)-W-NH2 (SEQ ID NO: 2).
The TAMRA based mass spectrometry assay was conducted as follows: 0.5 μM peptide substrate and 120 μM βNAD^+ was incubated with 10 nM SIRT1 for 25 minutes at 25° C. in a reaction buffer (50 mM Tris-acetate pH 8, 137 mM NaCl, 2.7 mM KCl, 1 mM MgCl2, 5 mM DTT, 0.05% BSA). The SIRT1 protein was obtained by cloning the SirT1 gene into a T7-promoter containing vector, which was then transformed and expressed in BL21(DE3) bacterial cells. Test compound was added at varying concentrations to this reaction mixture and the resulting reactions were monitored. After the 25 minute incubation with SIRT1, 10 μL of 10% formic acid was added to stop the reaction. The resulting reactions were sealed and frozen for later mass spec analysis. Determination of the amount of deacetylated substrate peptide formed (or, alternatively, the amount of O-acetyl-ADP-ribose (OAADPR) generated) by the sirtuin-mediated NAD-dependent deacetylation reaction allowed for the precise measurement of relative SIRT1 activity in the presence of varying concentrations of the test compound versus control reactions lacking the test compound.
A control for inhibition of sirtuin activity was conducted by adding 1 μL of 500 mM nicotinamide as a negative control at the start of the reaction (e.g., permits determination of maximum sirtuin inhibition). A control for activation of sirtuin activity was conducted using 10 nM of sirtuin protein, with 1 μL of DMSO in place of compound, to determine the amount of deacetylation of the substrate at a given time point within the linear range of the assay. This time point was the same as that used for test compounds and, within the linear range, the endpoint represents a change in velocity.
For the above assay, SIRT1 protein was expressed and purified as follows. The SirT1 gene was cloned into a T7-promoter containing vector and transformed into BL21(DE3). The protein was expressed by induction with 1 mM IPTG as an N-terminal His-tag fusion protein at 18° C. overnight and harvested at 30,000×g. Cells were lysed with lysozyme in lysis buffer (50 mM Tris-HCl, 2 mM Tris[2-carboxyethyl]phosphine (TCEP), 10 μM ZnCl2, 200 mM NaCl) and further treated with sonication for […] for complete lysis. The protein was purified over a Ni-NTA column (Amersham) and fractions containing pure protein were pooled, concentrated and run over a sizing column (Sephadex S200 26/60 global). The peak containing soluble protein was collected and run on an Ion-exchange column (MonoQ). Gradient elution (200 mM-500 mM NaCl) yielded pure protein. This protein was concentrated and dialyzed against dialysis buffer (20 mM Tris-HCl, 2 mM TCEP) overnight. The protein was aliquoted and frozen at −80° C. until further use.

[1] = concentration of test compound giving 150% activation of SIRT1, TAMRA peptide substrate
[2] = percent maximum fold activation of SIRT1, TAMRA peptide substrate
[3] = TAMRA assay, concentration giving 150% activation of SIRT1
[4] = TAMRA assay, percent maximum fold activation
[5] = TAMRA peptide substrate, concentration giving 150% activation of SIRT1
[6] = TAMRA peptide substrate, percent maximum fold activation

| SMILES | TAMRA EC1.5 (μM) [1] | Emax [2] | TAMRA EC1.5 (μM) [3] | Emax [4] | further results |
| --- | --- | --- | --- | --- | --- |
| O=C(Nc1cnc2ccc(-c3ccccc3C(F)(F)F)nn12)c1ccncc1 [Compound 87] | C (EC1.5>25 μM) | < 350% |  |  |  |
| CS(=O)(=O)c1ccccc1-c1ccc2ncc(C(=O)Nc3ccncc3)n2n1 [Compound 187] | C (EC1.5>25 μM) | < 350% |  |  |  |
| Cc1ccnc(NC(=O)c2cnc3ccc(-c4ccccc4C(F)(F)F)nn23)n1 [Compound 270] |  |  | A (EC1.5<1 μM) | ≥ 350% |  |
| O=C(Nc1cccc(CN2CCOCC2)n1)c1cnc2ccc(-c3cc(F)ccc3F)nn12 [Compound 30] | B (EC1.5 1-25 μM) | < 350% |  |  |  |
| Cc1ncccc1-c1ccc2ncc(C(=O)Nc3ccnc(N4CCC4)c3)n2n1 [Compound 63] | C (EC1.5>25 μM) | < 350% |  |  |  |
| O=C(Nc1cccc(OC[C@H](O)CO)n1)c1cnc2ccc(-c3ccccc3C(F)(F)F)nn12 [Compound 553] |  |  |  |  | TAMRA EC1.5 [5]: A (EC1.5<1 μM); Emax [6]: ≥ 350% |
| COc1cc(C)nc(NC(=O)c2cnc3ccc(-c4ccccc4C(F)(F)F)nn23)n1 [Compound 174] | A (EC1.5<1 μM) | ≥ 350% |  |  |  |
| Cc1nc2ccc(-c3ccccc3OC(F)(F)F)nn2c1C(=O)Nc1cnccn1 [Compound 471] |  |  |  |  | TAMRA EC1.5 [5]: A (EC1.5<1 μM); Emax [6]: ≥ 350% |
| O=C(Nc1ccncn1)c1cnn2ccc(-c3ccccc3C(F)(F)F)nc12 [Compound 268] |  |  | A (EC1.5<1 μM) | ≥ 350% |  |
| O=C(Nc1ccnc(OCC(F)(F)F)n1)c1cnc2ccc(-c3ccccc3C(F)(F)F)nn12 [Compound 325] |  |  | B (EC1.5 1-25 μM) | < 350% |  |
| O=C(Nc1cnn2ccc(-c3ccccc3OC(F)(F)F)nc12)c1ccccn1 [Compound 581] |  |  |  |  | TAMRA EC1.5 [5]: A (EC1.5<1 μM); Emax [6]: ≥ 350% |
| O=C(Nc1cccnc1)c1cnc2ccc(-c3c(F)cccc3Cl)nn12 [Compound 163] | C (EC1.5>25 μM) | < 350% |  |  |  |
| O=C(Nc1cccc(N2CCOCC2)n1)c1cnc2ccc(-c3ccccc3C(F)(F)F)nn12 [Compound 21] | A (EC1.5<1 μM) | ≥ 350% |  |  |  |
| Cc1scnc1C(=O)Nc1cnc2c(C)c(C)c(-c3ccccc3C(F)(F)F)nn12 [Compound 403] |  |  |  |  | TAMRA EC1.5 [5]: A (EC1.5<1 μM); Emax [6]: ≥ 350% |
| O=C(Nc1ccnc(OCC(O)CO)c1)c1cnc2ccc(-c3ccccc3C(F)(F)F)nn12 (stereo not shown) [Compound 89] | A (EC1.5<1 μM) | ≥ 350% |  |  |  |
| Cc1cc(C)nc(NC(=O)c2cnc3ccc(-c4ccccc4F)nn23)c1 [Compound 243] |  |  | A (EC1.5<1 μM) | ≥ 350% |  |
| Cc1ccnc(NC(=O)c2cnn3ccc(-c4ccccc4C(F)(F)F)nc23)c1 [Compound 501] |  |  |  |  | TAMRA EC1.5 [5]: A (EC1.5<1 μM); Emax [6]: ≥ 350% |
| Cc1cc(C)nc(NC(=O)c2cnc3ccc(-c4ccccc4OC(F)(F)F)nn23)n1 [Compound 399] |  |  |  |  | TAMRA EC1.5 [5]: B (EC1.5 1-25 μM); Emax [6]: ≥ 350% |
| O=C(Nc1cnn2ccc(-c3ccccc3C(F)(F)F)nc12)c1ncccn1 [Compound 252] |  |  | B (EC1.5 1-25 μM) | ≥ 350% |  |
| O=C(Nc1cnc2ccc(-c3ccccc3C(F)(F)F)nn12)c1ccc(CN2CCOCC2)nc1 [Compound 147] | B (EC1.5 1-25 μM) | < 350% |  |  |  |
| O=C(Nc1cnc2ccc(-c3ccccc3C(F)(F)F)nn12)c1ccnc(CN2CCOCC2)c1 [Compound 148] | C (EC1.5>25 μM) | < 350% |  |  |  |
| O=C(Nc1cnc2ccc(N3CC[C@H](F)C3)nn12)c1ccccn1 [Compound 564] |  |  |  |  | TAMRA EC1.5 [5]: B (EC1.5 1-25 μM); Emax [6]: < 350% |
| Cc1nc2c(C)cc(-c3ccccc3C(F)(F)F)nn2c1C(=O)Nc1ccnc(OC2CCOCC2)n1 [Compound 593] |  |  |  |  | TAMRA EC1.5 [5]: A (EC1.5<1 μM); Emax [6]: ≥ 350% |
| O=C(Nc1nccc(OCC(O)CO)n1)c1cnc2ccc(-c3ccccc3C(F)(F)F)nn12 (stereo not shown) [Compound 226] |  |  | B (EC1.5 1-25 μM) | ≥ 350% |  |
| O=C(Nc1ccnc(N2CCC2)c1)c1cnc2ccc(-c3ccccc3C(F)F)nn12 [Compound 52] | A (EC1.5<1 μM) | ≥ 350% |  |  |  |
| O=C(Nc1ccncc1)c1cnc2ccc(-c3ccccc3Cl)nn12 [Compound 94] | B (EC1.5 1-25 μM) | < 350% |  |  |  |
| O=C(Nc1cccc(N2CCOCC2)n1)c1cnc2ccc(-c3cncc(C(F)F)c3)nn12 [Compound 60] | A (EC1.5<1 μM) | < 350% |  |  |  |
| Cc1c(-c2ccccc2Cl)nn2c(NC(=O)c3cccc(OCC(O)CO)n3)cnc2c1C (stereo not shown) [Compound 402] |  |  |  |  | TAMRA EC1.5 [5]: A (EC1.5<1 μM); Emax [6]: ≥ 350% |
| O=C(Nc1nccs1)c1cnc2ccc(-c3ccccc3C(F)(F)F)nn12 [Compound 15] | B (EC1.5 1-25 μM) | ≥ 350% |  |  |  |

Continued, in another order:

| TAMRA EC1.5 (μM) [1] | Emax [2] | TAMRA EC1.5 (μM) [3] | Emax [4] | SMILES | further results |
| --- | --- | --- | --- | --- | --- |
|  |  | A (EC1.5<1 μM) | ≥ 350% | O=C(Nc1cncc(F)c1)c1cnn2ccc(-c3ccccc3OC(F)(F)F)nc12 [Compound 660] |  |
|  |  | A (EC1.5<1 μM) | ≥ 350% | Cc1ccnc(NC(=O)c2c(C)nc3ccc(-c4cccc(OC[C@H](O)CO)c4)nn23)c1 [Compound 798] |  |
|  |  | A (EC1.5<1 μM) | ≥ 350% | CC(C)c1csc(C(=O)Nc2cnn3ccc(-c4ccccc4OC(F)(F)F)nc23)n1 [Compound 771] |  |
|  |  | A (EC1.5<1 μM) | ≥ 350% | Cc1ccnc(C(=O)Nc2cnn3ccc(-c4ccccc4OC(F)(F)F)nc23)c1 [Compound 714] |  |
|  |  | A (EC1.5<1 μM) | ≥ 350% | Cc1cc(C)nc(NC(=O)c2cnn3ccc(-c4ccccc4OC(F)(F)F)nc23)c1 [Compound 605] |  |
|  |  | A (EC1.5<1 μM) | ≥ 350% | Cc1cc(C)nc(NC(=O)c2c(C)nn3ccc(-c4ccccc4C(F)(F)F)nc23)c1 [Compound 685] |  |
|  |  | A (EC1.5<1 μM) | ≥ 350% | Cc1cc(-c2ccccc2C(F)(F)F)nn2c(C(=O)Nc3cc(N4CCCC4)ncn3)cnc12 [Compound 646] |  |
|  |  | A (EC1.5<1 μM) | ≥ 350% | Cc1nn2ccc(-c3ccccc3C(F)(F)F)nc2c1C(=O)Nc1cncc(F)c1 [Compound 768] |  |
|  |  | A (EC1.5<1 μM) | ≥ 350% | O=C(Nc1cnn2ccc(-c3ccccc3C(F)(F)F)nc12)c1cncc(OC[C@@H](O)CO)n1 [Compound 783] |  |
